According to patent publication US8426151B2, “Systems and methods for the detection of biomarkers” (Companion Diagnostics Inc., priority 2010, dated 2013):
Values joined by “and” are separate entries in the source; they are usually repeats but may differ in a detail not shown here. Equal values may be shown once.

Tests used:
peroxidase = assay: Peroxidase assay in saliva (Amplex Red); assay type: biochemical; conditions: 500 ppm, 30 minutes, FIGS. 26-29
Method: To determine the effect of various GRAS compounds as inhibitors of peroxidase activity, a standard assay using Amplex® Red (Life Technologies), which releases a fluorescent oxidation product.
The test compounds, such as GRAS materials or cocktails of same, were prepared at a concentration of 500 ppm in distilled water. For the assay, 50 μl samples of test compounds were mixed with 20-30 μl of saliva (either “pooled” or “unpooled”) prior to the addition of Amplex® Red. Following the mixture of the test compounds with saliva, 50 μl of Amplex® Red/HRP working solution (See Protocol for Invitrogen Assay #A22188, which is incorporated herein in its entirety), which has a concentration of 100 μM of Amplex® Red, is added to the test compound/saliva mixture. […] Reactions were allowed to run for 30 minutes during these assays.

α-amylase = molecular target: T1, α-amylase (Homo sapiens, UniProt P0DUB6); assay: α-Amylase inhibition saliva screening (2-chloro-p-nitrophenol-maltotriose substrate, 405 nm); assay type: biochemical; conditions: for absorbance at 405 nm, single readings: 37° C., beside 100% Saliva Control; for Ave: mean of four readings at 405 nm
T1 sequence (P0DUB6 16-511): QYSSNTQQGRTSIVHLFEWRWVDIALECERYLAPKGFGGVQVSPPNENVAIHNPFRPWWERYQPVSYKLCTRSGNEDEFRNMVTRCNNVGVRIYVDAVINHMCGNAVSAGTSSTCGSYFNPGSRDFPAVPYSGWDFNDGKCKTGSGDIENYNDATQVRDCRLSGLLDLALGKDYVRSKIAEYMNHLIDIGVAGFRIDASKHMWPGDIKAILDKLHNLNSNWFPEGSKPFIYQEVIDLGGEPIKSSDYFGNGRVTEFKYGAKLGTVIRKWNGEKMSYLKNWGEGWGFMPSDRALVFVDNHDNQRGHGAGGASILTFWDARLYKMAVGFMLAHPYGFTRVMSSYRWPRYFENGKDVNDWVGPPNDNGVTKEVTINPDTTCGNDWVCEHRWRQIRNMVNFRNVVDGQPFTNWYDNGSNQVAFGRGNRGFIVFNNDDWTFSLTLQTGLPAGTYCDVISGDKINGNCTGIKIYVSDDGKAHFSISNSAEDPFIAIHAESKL
From the text: Enzymatic activity of α-amylase on the substrate yields 2-chloro-p-nitrophenol, which can be measured spectrophotometrically at 405 nm. The amount of α-amylase activity present in the experimental sample is directly proportional to the increase in absorbance at 405 nm.

Row | Compound | peroxidase inhibition (peroxidase) | absorbance at 405 nm, single readings (α-amylase; 0 min) | Ave (α-amylase; 0 min) | absorbance at 405 nm, single readings (α-amylase; 5 min) | Ave (α-amylase; 5 min) | Ave (α-amylase; 15 min) | absorbance at 405 nm, single readings (α-amylase; 0 min, sulfate hydrate) | absorbance at 405 nm, single readings (α-amylase; 5 min, sulfate hydrate) | absorbance at 405 nm, single readings (α-amylase; 15 min, sulfate hydrate)
1 | Cn1c(=O)c2c(ncn2C)n(C)c1=O [CDI #33, Caffeine] | significant peroxidase inhibition capabilities | – | – | – | – | – | – | – | –
2 | COc1ccc(O)c(C(C)(C)C)c1 [CDI-039, 3-tert--butyl-hydroxyanisole] | significant peroxidase inhibition capabilities | – | – | – | – | – | – | – | –
3 | Aluminum potassium sulfate dodecahydrate [CDI-42] | significant peroxidase inhibition capabilities | 0.80 and 0.90 and 0.84 | 0.92 | 1.80 | 1.85 | 2.29 | – | – | –
4 | Aluminum sulfate hydrate [CDI-34] | – | – | 0.40 | – | 0.50 | 0.56 | 0.40 and 0.36 and 0.45 | 0.49 and 0.50 and 0.52 | 0.53 and 0.61 and 0.54 and 0.56
